Measurements: patent US20250312469A1 (CANGET BIOTEKPHARMA, priority 2024, published 2025)

Columns and labels:
Plasma stability = format: in vitro ADME, human
Method: Both matrices were adjusted to pH 7.4 prior to initiating the experiments. A DMSO stock as first prepared for the test article. […] The vials were kept in a benchtop Thermomixer for the duration of the experiment. Aliquots (100 μL) were taken at each time point (0, 15, 30, 60, and 120 minutes) and added to 96-well plates which had been pre-filled with 300 μL of acetonitrile (ACN). Samples were stored at 4° C. until the end of the experiment. […] Analytical conditions are outlined in Appendix 1.

P-gp = P-gp (Homo sapiens, UniProt P08183)
Sequence of P-gp (P08183 whole entry): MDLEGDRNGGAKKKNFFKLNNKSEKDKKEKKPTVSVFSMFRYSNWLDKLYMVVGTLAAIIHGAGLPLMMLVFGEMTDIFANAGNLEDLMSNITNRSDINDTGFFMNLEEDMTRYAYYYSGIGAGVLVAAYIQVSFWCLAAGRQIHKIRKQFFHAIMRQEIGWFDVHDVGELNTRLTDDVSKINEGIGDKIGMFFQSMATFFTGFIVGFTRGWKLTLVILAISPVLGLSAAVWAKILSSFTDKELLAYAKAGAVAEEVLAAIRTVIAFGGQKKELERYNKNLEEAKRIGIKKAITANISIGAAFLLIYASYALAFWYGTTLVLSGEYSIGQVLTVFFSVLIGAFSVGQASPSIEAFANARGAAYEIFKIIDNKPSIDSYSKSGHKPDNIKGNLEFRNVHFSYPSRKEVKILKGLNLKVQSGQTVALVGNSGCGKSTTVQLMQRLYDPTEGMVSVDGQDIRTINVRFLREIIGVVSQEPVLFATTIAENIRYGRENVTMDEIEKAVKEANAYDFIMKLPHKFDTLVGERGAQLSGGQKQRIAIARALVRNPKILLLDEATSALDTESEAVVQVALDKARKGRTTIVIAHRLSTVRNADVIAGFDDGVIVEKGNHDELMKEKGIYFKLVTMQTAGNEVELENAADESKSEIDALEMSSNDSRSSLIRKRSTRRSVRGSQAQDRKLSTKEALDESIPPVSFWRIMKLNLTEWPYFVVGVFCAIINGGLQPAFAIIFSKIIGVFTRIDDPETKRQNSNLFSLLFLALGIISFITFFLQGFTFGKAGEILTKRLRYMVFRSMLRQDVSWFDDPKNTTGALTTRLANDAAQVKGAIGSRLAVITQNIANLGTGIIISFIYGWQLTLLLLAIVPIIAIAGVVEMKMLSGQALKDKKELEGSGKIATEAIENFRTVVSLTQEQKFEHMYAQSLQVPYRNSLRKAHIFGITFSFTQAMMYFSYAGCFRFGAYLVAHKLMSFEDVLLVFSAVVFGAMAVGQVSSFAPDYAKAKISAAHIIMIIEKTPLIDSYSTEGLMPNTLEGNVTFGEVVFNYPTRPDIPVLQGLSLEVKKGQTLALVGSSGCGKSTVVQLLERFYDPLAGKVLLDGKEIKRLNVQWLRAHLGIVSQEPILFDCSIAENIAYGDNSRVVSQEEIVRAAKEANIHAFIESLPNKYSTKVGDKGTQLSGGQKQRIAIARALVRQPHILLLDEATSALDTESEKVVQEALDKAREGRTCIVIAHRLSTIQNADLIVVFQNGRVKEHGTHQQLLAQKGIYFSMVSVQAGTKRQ

CRPC LAPC9 tumors = experiment: LAPC9 CRPC tumor model; format: in vivo, SCID mice; conditions: 8 mg/kg orally once per week, 2 times
UbE2T = biological target: T1, UbE2T (Homo sapiens, UniProt Q9NPD8); experiment: ProtoArray protein microarray probed with 3H-FL118; format: binding; design: purchased Invitrogen ProtoArray Human Protein Microarray v5.0; conditions: 3H-FL118 0.5 μM
T1 sequence (Q9NPD8 1-197): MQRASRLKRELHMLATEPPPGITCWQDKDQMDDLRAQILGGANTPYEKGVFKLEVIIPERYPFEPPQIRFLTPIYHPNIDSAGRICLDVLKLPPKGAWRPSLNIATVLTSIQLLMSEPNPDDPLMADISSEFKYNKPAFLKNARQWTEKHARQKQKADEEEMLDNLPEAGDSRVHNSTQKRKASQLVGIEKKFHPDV
Method: The flask was then immersed in silicone oil bath at 180° C.-190° C. for 6 hours. The tritium gas was removed. The reaction mixture was dissolved in 1 mL of DMSO and back-exchanged 10× with 50% ethanol. Injected directly to CapCeLL PAK C-18 column (4.6×250 mm), mobile phase 30% CH3CN, 0.1% TFA, flow 1 mL/min, U.V. =200 nm, r.t. =40 min. After purification, total activity was 5 mCi (solid) with a specificity of 5.6 Ci/mmol at a radiochemical purity of >97% for ^3H-FL118. […] The flask was then immersed in silicone oil bath at 190° C. for 24 h. The tritium gas was removed. The reaction mixture was dissolved in 1 mL of DMSO and back-exchanged 10× with 50% ethanol and injected directly to CapCeLL Pak C-18 column (4.6×250 mm), mobile phase 30% CH3CN, 0.1% TFA, […], U.V. =200 nm, r.t. =40 min. After purification total activity was 5 mCi (solid) with a specificity of 16.5 Ci/mmol at a radiochemical purity of ≥81% for ^3H-FL118.
Use of ^3H-FL118 as a radioactive probe to search FL118-binding proteins through screening of human protein microarray (ProtoArray R with 9,400 human proteins, Invitrogen): The study process includes the following steps.
1. Blocking the ProtoArray: (i) Immediately place the mailer containing the Human Protein Microarray v5.0 at 4° C. upon removal from storage at −20° C. and equilibrate the mailer at 4° C. for at least 15 minutes prior to use. (ii) Place Human Protein Microarrays with the barcode facing up in the bottom of a 4-chamber incubation tray such that the barcode end of the microarray is near the tray end containing an indented numeral. […] Avoid pipetting buffer directly onto the array surface. (iv) Incubate the tray for 1 hour at 4° C. on a shaker set at 50 rpm (circular shaking). (v) After incubation, remove Protein Microarrays from FL118 Assay Buffer. To remove array from the 4-chamber incubation tray, insert the tip of forceps into the indented numeral end and gently pry the array upward. Using a gloved hand, pick up the microarray by holding the array by its edges only. Tap to remove excess liquid from slide surface. (vi) Proceed immediately to Probing the Array.
2. Probing the ProtoArray: (i) Place each ProtoArray horizontally in a separate sterile 50 mL conical tube with about ⅓ of the array extended outside of the tube. The barcoded end of the array should protrude from the tube (face up). (ii) For each ProtoArray, add 100 μL of probing mixture including ^3H-FL118 (final concentration of ^3H-FL118 at 0.1 μM and 0.5 μM, respectively on different ProtoArray) and the positional mapping reagent ^3H-estradiol and pipet the mixture gently onto the surface of the ProtoArray. (iii) Gently place a coverslip over the surface of the ProtoArray using forceps to avoid capturing bubbles. […]

[1] = PK after single i.v. dose in tumor bearing mice

Structure (SMILES): CCC1(O)C(=O)OCc2c1cc1n(c2=O)Cc2cc3cc4c(cc3nc2-1)OCO4 (centres unmarked) [FL118]
- half-life (Plasma stability; 0.5 μM): long half-life
- Percent Remaining (Plasma stability; Human Plasma, 0 min): 100%
- Percent Remaining (Plasma stability; Human Plasma, 15 min): 111%
- Percent Remaining (Plasma stability; Human Plasma, 30 min): 110%
- Percent Remaining (Plasma stability; Human Plasma, 60 min): 94%
- Percent Remaining (Plasma stability; Human Plasma, 120 min): 26%
- half-life at 0.5 μM (Plasma stability; both sexes, plasma (sodium heparin), pH 7.4, Human Plasma): 1.53 h
- inhibition of P-gp transport of digoxin (P-gp; 1.0 μM FL118): does not inhibit digoxin acting as a BCRP substrate
- P-gp Inhibition Potential Classification (P-gp; Caco-2, digoxin as substrate, 1.0 μM FL118 or 1.0 μM Valspodar): Negative (without inhibitor, and reduced by <50 with inhibitor: Negative)
- antitumor efficacy (CRPC LAPC9 tumors): sensitive to FL118
- Signal used (UbE2T): 1812 3H counts per min
- Z-Score (UbE2T): 3.2
- Vz ([1]; FaDu tumor): 33052 g/kg
- Vz ([1]; SW620 tumor): 30742 g/kg
